Assay results published in patent US10231939B2, “Hydroxytyrosol and oleuropein compositions for induction of DNA damage, cell death and LSD1 inhibition” (priority 2012, dated 2019).

What was measured:
Assay type in all cases: cell-based, human
K562 cells [1] = assay: Apo-ONE Homogeneous Caspase 3/7 assay, K562
Protocol: Apoptosis was determined by cell lysis prior to measuring caspase-3/7 enzymatic activity with Apo-ONE Homogeneous Caspase-3/7 Assay kit (Promega, Wis., USA), according to the manufacturer's instructions. Following determination of growth inhibition as described above, Apo-1 substrate/buffer mix was added to each well at a ratio of 1:1 and incubated for 4 hours on a rotating platform in the dark at 22° C. The fluorescence intensity (λex=485 nm and λem=525 nm) was determined on a Victor3 multilabel plate counter (PerkinElmer, Waltham, Mass., USA). Apoptosis was reported as the change in fluorescence over 4 hours and after subtraction of the media control.

K562 cells [2] = assay: γH2AX immunofluorescence, K562
Protocol: Cells were seeded at densities of 1×10^6/mL in 24 well culture (Nalge Nunc, New York, USA) and treated with hydroxytyrosol (0, 20, 100 μM), for 24 hours at 37° C., 5% (v/v) CO2. Cells were then stained and quantified for the number of γH2AX foci per cell nuclei. Briefly, using cytofunnels and filter cards, aliquots of […] were cytospun (Shandon, Inc.) for 5 minutes at 500 rpm onto Poly-o-lysine slides (Menzel-Glaser, Germany). All cells were then fixed for 10 minutes with 4% paraformaldehyde (Sigma-Aldrich, USA), washed once for five minutes with PBS without calcium and magnesium and permeabilized using 0.1% Triton X-100(Sigma-Aldrich, USA) for 10 minutes at room temperature. […]
Images were acquired using a Zeiss LSM 510 Meta laser confocal microscope fitted with a Z-stage motor and 63× oil plan apochromat objective with a refractive index of 1.40. […] Images required for γH2AX quantification were acquired in 512×512 pixel format and loaded into Image J (Fiji version 1.44a). […]
Image J software was used for the quantification of foci in all experiments. […] Now clearly defined nuclear regions were selected, numbers of foci were quantified by using the find maxima tool. […] Foci were now quantified as a total number for all cells selected. The average number of foci per nucleus was calculated and recorded into Excel spread sheets (Microsoft, Redmond, Wash., USA). […]

PBMC = assay: Total Antioxidant Capacity Assay, PBMC; settings: 50 μM hydroxytyrosol, 200 μM Oleuropein or Formulation 2 (dilution factor=4), 24 hours
Protocol: Human peripheral blood mononuclear cells were seeded at 1×10^6 cells per well in 12 well culture plates (Nalge Nunc) with Formulation 2 (dilution factor=4) (Table 9), 50 μM hydroxytyrosol or 200 μM Oleuropein for 24 hours; 37° C., 5% (v/v) CO2. In separate experiments, cells were treated with 30 mM glucose for 72 hours prior to 24 hours incubation in fresh media and then a 24 hour incubation with the hydroxytyrosol-containing formulation 2 (dilution factor=4); 37° C., 5% (v/v) CO2. Experiments to determine the protection of cells following doxorubicin treatment involved pre-treatment with Formulation 2 (dilution factor=4) for 24 hours prior to 1 hour incubation with 1 μM doxorubicin. Cells were washed and incubated for a further 24 hours in fresh media; 37° C., 5% (v/v) CO2. Cells were harvested for their total protein by centrifugation at 1000×g for 10 minutes at 4° C. to pellet cell suspensions. […] Cell lysates were analyzed for their total antioxidant capacity. […] The sum of endogenous and food-derived antioxidants in the sample represented the total antioxidant activity of the cells and was measured by their ability to inhibit the oxidation of ABTS (2,2′-Azino-di-[3-ethylbenzthiazoline sulphonate]) in the presence of metmyoglobin using the Perkin Elmer Multi-plate reader (λem=750 nm). […]

OCCc1ccc(O)c(O)c1 [HT, 4-(2-hydroxyethyl)-1,2-benzenediol]
caspase 3/7 apoptotic activity (K562 cells [1]; K562, hydroxytyrosol 24 hours): significant dose dependent increase | caspase 3/7 mediated apoptosis (K562 cells [1]; K562, hydroxytyrosol or Formulation 2 (4× diluted), FIG. 25): significantly induce caspase 3/7 mediated apoptosis | DNA double-strand breaks (γH2AX accumulation) (K562 cells [2]; K562, 0, 20, 100 μM, 24 hours): induces significant DNA-double strand breaks | effect on DNA damage by anti-cancer modalities (doxorubicin, vinblastine, mitomycin C, UVA, γ-radiation) (K562 cells [2]; K562, 100 μM hydroxytyrosol pre-treatment 24 hours): enhances the DNA damaging effects | total antioxidant capacity (PBMC; listed as Hydroxytyrosol): significantly increased the total antioxidant | total antioxidant capacity (PBMC; listed as hydroxytyrosol): enhance the antioxidant capacity
